Assay [1] deals with T1, LINE1 reverse transcriptase (recombinant MBP-tagged LINE1 protein (238-1061)) (Homo sapiens, UniProt O00370).
T1 construct: recombinant MBP-tagged LINE1 protein (238-1061); made in house
Description: Homogeneous time-resolved fluorescence (HTRF) LINE1 RT assay. Format: biochemical. The following applies: triphosphate analogs, LINE1 enzyme 64 ng/well, 25° C. 60 minutes. As to the method: Exemplary triphosphate analogs were tested for the ability to inhibit LINE1 reverse transcriptase using a homogeneous time-resolved fluorescence (HTRF) assay. Assay procedures and results are described below.
The LINE1 reverse transcriptase homogeneous time-resolved fluorescence (HTRF) assay was performed with recombinant MBP-tagged LINE1 protein (238-1061) (generated and purified according to procedures in Dai L. et al. BMC Biochemistry 2011; 12:18) in a 384-well format. Test compound was serially diluted in DMSO and further diluted in the assay buffer (50 mM Tris-HCl, 50 mM KCl, 10 mM MgCl2, 10 mM DTT, pH 8.1) to achieve a final DMSO concentration of 1%. The serially diluted compound was mixed with 64 ng/well of LINE1 enzyme, 5 nM of pre-annealed template/biotin-primer pair (synthesized at Generay Biotechnology), 10 nM of Fluorescein-12-dCTP fluorescent probe (PerkinElmer), and 1 μM dGTP/dATP/dTTP (ThermoFisher Scientific) in the assay buffer. The template/biotin-primer sequences were as follows:
After incubating at 25° C. for 60 minutes, the detection reagent (20 mM EDTA with streptavidin-terbium cryptate, Cisbio Bioassay) in the PPI buffer (Cisbio Bioassay) was added, and the mixture was incubated at 25° C. for 30 minutes. At the end of the incubation, fluorescence was read at ex/em=337/485 nm and ex/em=337/520 nm on an Envision 2104 plate reader (PerkinElmer). The fluorescence ratio at 520/485 nm was used for the calculation. […] The IC50 was calculated by fitting the compound dose inhibition curve with a 4-parameter non-linear regression equation.
A general note: Time-resolved FRET reads energy transfer from a long-lived donor to a nearby acceptor.

For the next assay, the target named is T2, human telomerase (Homo sapiens, UniProt O14746).
T2 construct: endogenous in cells; host or cells: MCF-7 cell lysate
T2 sequence (O14746 whole entry): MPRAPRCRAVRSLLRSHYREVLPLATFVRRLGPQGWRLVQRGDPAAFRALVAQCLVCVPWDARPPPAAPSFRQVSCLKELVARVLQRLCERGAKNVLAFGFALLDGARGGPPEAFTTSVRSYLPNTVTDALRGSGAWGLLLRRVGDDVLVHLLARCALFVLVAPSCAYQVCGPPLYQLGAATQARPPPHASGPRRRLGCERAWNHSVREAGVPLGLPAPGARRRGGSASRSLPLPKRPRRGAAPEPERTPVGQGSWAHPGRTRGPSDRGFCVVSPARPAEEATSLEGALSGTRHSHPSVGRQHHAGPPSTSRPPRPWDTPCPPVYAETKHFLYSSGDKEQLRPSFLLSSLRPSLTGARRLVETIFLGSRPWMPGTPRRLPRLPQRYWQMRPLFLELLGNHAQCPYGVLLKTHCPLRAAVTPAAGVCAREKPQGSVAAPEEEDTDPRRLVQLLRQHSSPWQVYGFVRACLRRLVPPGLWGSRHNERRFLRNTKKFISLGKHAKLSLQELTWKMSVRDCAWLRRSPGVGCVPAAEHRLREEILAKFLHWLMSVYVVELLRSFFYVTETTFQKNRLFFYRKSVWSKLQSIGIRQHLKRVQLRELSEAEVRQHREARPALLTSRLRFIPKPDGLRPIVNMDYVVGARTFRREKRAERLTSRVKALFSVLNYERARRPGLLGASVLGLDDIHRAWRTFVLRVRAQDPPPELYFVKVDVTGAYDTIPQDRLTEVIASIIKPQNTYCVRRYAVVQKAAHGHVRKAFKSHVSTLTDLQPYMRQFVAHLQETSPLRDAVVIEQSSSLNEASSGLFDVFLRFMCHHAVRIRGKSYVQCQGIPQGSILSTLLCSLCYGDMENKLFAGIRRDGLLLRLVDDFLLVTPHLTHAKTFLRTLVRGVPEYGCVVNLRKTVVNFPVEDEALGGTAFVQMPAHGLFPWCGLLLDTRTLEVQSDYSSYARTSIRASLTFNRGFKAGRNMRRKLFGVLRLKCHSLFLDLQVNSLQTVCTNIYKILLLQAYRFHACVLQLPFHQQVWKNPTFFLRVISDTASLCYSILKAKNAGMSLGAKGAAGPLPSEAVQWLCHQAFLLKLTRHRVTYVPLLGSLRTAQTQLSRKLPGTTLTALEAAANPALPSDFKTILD
T2 sequence (O60832 whole entry partner): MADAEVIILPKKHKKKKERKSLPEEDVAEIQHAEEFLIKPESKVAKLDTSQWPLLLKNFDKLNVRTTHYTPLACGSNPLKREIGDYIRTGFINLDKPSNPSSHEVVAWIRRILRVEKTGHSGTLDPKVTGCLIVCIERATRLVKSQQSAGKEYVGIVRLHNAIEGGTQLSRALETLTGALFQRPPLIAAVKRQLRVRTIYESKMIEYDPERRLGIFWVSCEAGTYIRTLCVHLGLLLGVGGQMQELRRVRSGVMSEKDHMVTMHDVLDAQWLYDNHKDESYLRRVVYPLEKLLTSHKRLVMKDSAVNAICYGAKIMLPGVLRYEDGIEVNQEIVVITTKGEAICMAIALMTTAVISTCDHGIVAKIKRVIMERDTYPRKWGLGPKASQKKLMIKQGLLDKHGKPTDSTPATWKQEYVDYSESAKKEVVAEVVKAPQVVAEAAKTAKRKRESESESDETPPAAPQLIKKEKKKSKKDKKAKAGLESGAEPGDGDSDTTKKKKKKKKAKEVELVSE
T2 sequence (Q9NX24 whole entry partner): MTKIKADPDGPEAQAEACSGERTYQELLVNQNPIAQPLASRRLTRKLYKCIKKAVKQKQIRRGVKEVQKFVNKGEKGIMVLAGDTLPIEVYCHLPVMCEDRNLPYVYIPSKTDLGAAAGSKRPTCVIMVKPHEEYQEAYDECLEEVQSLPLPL
T2 sequence (Q9NPE3 whole entry partner): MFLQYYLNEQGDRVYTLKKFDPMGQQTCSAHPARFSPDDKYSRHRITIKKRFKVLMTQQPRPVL
T2 sequence (Q9NY12 whole entry partner): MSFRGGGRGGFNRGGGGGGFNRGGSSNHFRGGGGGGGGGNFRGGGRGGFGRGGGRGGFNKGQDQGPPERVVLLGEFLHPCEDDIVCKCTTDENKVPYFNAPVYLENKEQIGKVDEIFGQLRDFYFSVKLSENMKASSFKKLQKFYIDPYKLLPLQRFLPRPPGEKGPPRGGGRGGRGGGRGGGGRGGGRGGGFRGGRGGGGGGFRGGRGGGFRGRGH
As to the kind of experiment: Human telomerase PCR ELISA assay (MCF-7 cell lysate). The class given is biochemical. The following applies: triphosphates, 0.2 μg MCF-7 lysate. As to the method: Exemplary compounds were tested for ability to inhibit human telomerase using a PCR ELISA assay. Off-target inhibition of human telomerase can result in undesired cellular toxicity, e.g., triggering replicative senescence and/or apoptotic cell death. Assay procedures and results are described below.
The human telomerase assay was performed with telomerase in the MCF-7 cell lysate using the Telo TAGGG Telomerase PCR ELISA^Plus kit (Roche) per manufacturer's instruction. MCF-7 cells were lysed in the lysis buffer and the supernatant was used for the assay. Test compound was serially diluted in water and mixed with 0.2 μg of MCF-7 lysate in PCR tubes and incubate at room temperature for 15 minutes. The PCR reaction mixture was then added, the tubes were transferred to a thermal cycler (Analytikjena) and the telomerase elongation reaction was performed for 30 minutes followed by 30 PCR cycles with the following protocol:
Mix 2.5 μL of PCR amplification product from above to 10 μl of denature reagent to each well of a PCR plate and incubate at room temperature for 10 minutes. Add in 100 μl of hybridization buffer T and mix well. Transfer 100 μl per well of the reaction mixture to the precoated MP module, incubate at 37° C. for 2 hours. Remove the hybridization solution, wash three times with the wash buffer, add anti-DIG-HRP solution, incubate at room temperature for 30 minutes. Remove the anti-DIG-HRP solution and wash five times with the wash buffer. Add TMB substrate and incubate at room temperature for 10 minutes. Measure the absorbance at 450 nm using Envision (PerkinElmer).
On the technique in general: In an ELISA, binding on a coated surface is turned into a signal by an enzyme label.

For a further assay, the system named is human PBMC. As to the kind of experiment: Decitabine-stimulated human PBMC assay (IFN-β, cell viability). The class given is cell-based. The following applies: anti-CD3/anti-CD28, decitabine 10 μM, 5 days. On the procedure: EasySep buffer (32 mL, […] Technologies, cat. #20144) was used to dilute 8 mL of LRSC buffy coat (from fresh Leukopak) with gentle mixing. The diluted buffy coat (20 mL) was transferred into each of two SepMate 50 tubes, and the tubes were filled with 15 mL of Lyphoprep ([…], cat. #07851) density gradient. The SepMate tubes were then centrifuged at 1200G for 10 minutes at room temperature with the brake on. The top layer of supernatant was collected in SepMate tubes by quickly pouring it into a new 50 mL conical tube. The PBMCs were washed with EasySep buffer ×2 by centrifuging at 300G for 5 minutes. The cells were resuspended in 30 mL of EasySep and centrifuged at 100G for 5 minutes with the brake off, and the platelets were removed. The cells were then resuspended in 6 mL of 1×RBC lysis buffer (Invitrogen) and incubated at 37° C. for 5 minutes. 25 mL of EasySep buffer was then mixed into the tube and centrifuged at 300G for 5 minutes. The cells were resuspended in 10 mL of EasySep buffer and the cells were then counted with Cellometer (AO/PI). The PBMCs were resuspended in RPMI1640 (ThermoFisher)^+10% FBS (HyClone)^+μ/s at 3×10^6/mL. The PBMCs (100 μL, 300 k PBMCs) were then seeded in a 96-well flat bottom microplate (Corning) that had been precoated with 100 μL of anti-CD3 antibody (10 μg/mL in PBS, Biolegend) or PBS at 4° C., one day before the assay was commenced.
To each well the following solutions were added 1) 100 μL of cells (final cell number per well is 3×10^5 cell/well); 2) 25 μL of anti-CD28 antibody at 6×(5 μg/mL final concentration, Biolegend); 3) 25 μL of decitabine at 6×(10 μM final concentration); and 4) Compound in DMSO was dispensed directly into each well with a d300e digital dispenser (Tecan). The final concentration of DMSO for each well was normalized to 0.3%. The plate was incubated at 37° C. without any agitation for 5 days. Samples were collected 120 hours after incubation to determine IFN-0 and IL-2 levels using a U-PLEX Human IFN-β Assay Sector (5PL) (MSD, cat. #K151VIK-2).
After 5 days, the plate was spun down at 100×G for 5 minutes. Supernatants (100 μL) were collected for interferon β(IFN-β) analysis using the MSD assay noted above, and any residual supernatant was stored at −80° C.

IC50 and IFN-β level data for 8 molecules are collected here from patent publication US20230295212A1 (ROME Therapeutics, Inc., priority 2022, published 2023).

Where a name gives a salt, the structure may show the parent alone.

As for `CC[C@]1(COP(=O)(O)OP(=O)(O)OP(=O)(O)O)O[C@@H](n2ccc(N)nc2=O)C[C@@H]1O` [44-TP], the IC50 in assay [1] was 108 nM; against human telomerase, 25000 to 50000 nM.
`Nc1ccn([C@H]2C[C@H](O)[C@](CO)(CCl)O2)c(=O)n1` [Compound 2, 4-amino-1-((2R,4S,5R)-5-(chloromethyl)-4-hydroxy-5-(hydroxymethyl)tetrahydrofuran-2-yl)pyrimidin-2(1H)-one]: in the assay on human PBMC, the IFN-β level entry is listed as “inhibition of IFN-0”.
With `Nc1ccn([C@H]2C[C@H](O)[C@@](CCl)(COP(=O)(O)OP(=O)(O)OP(=O)(O)O)O2)c(=O)n1` [Compound 2-TP], the IC50 in assay [1] is 47.5 nM; against human telomerase, ≤ 1000 nM.
As to `Nc1nc(=O)n([C@H]2C[C@H](O)[C@@](CCl)(COP(=O)(O)OP(=O)(O)OP(=O)(O)O)O2)cc1F` [Compound 14-TP, ((2R,3S,5R)-5-(4-amino-5-fluoro-2-oxopyrimidin-1(2H)-yl)-2-(chloromethyl)-3-hydroxytetrahydrofuran-2-yl)methyl tetrahydrogen triphosphate TEA Salt], the figures for the IC50 (in assay [1]; against human telomerase) were 272 nM and ≤ 1000 nM, respectively.
Taken in the same sequence, the figures for `C#C[C@]1(COP(=O)(O)OP(=O)(O)OP(=O)(O)O)O[C@@H](n2ccc(N)nc2=O)[C@@H](F)[C@@H]1O` [Compound 35-TP] were 13.7 nM and > 100000 nM.
For `Nc1ccn([C@@H]2O[C@](CCl)(COP(=O)(O)OP(=O)(O)OP(=O)(O)O)[C@@H](O)[C@@H]2F)c(=O)n1` [Compound 40-TP], the IC50 was 831 nM in assay [1] and > 100000 nM against human telomerase.
Taken in the same sequence, the figures for `C=C[C@]1(COP(=O)(O)OP(=O)(O)OP(=O)(O)O)O[C@@H](n2ccc(N)nc2=O)C[C@@H]1O` [Compound 43-TP] were 81 nM and 1000 to 25000 nM.
As to `Nc1nc(=O)n([C@@H]2O[C@](CCl)(COP(=O)(O)OP(=O)(O)OP(=O)(O)O)[C@@H](O)[C@@H]2F)cc1F` [Compound 67-TP], the IC50 in assay [1] was 430 nM; against human telomerase, > 100000 nM.

What is called IC50 is the concentration at which inhibition is half-maximal.
